Test results taken from patent US20100273726A1, “METHICILLIN-RESISTANT STAPHYLOCOCCUS AUREUS ACTIVE METABOLITES ISOLATED FROM LAURUS NOBILIS AND COMBINATIONS THEREOF” (TRITON BIOPHARMA, priority 2009, published 2010).

Key:
[1] = preliminary maximum tolerated dose experiment; type: in vivo; conditions: maximum of 20 mg/kg IP for two days
Experimental: The number of MRSA isolated from vancomycin treated animals was 2.2×10^7 g of tissue, a reduction of 72% compared to vehicle control. Similarly, the number of MRSA recovered after treatment with compound (1) at 3 mg/kg and 15 mg/kg were 2.6×10^7 and 1.8×10^7 respectively, which correspond to a reduction of 67% and 78% as compared to vehicle control. […] To determine the maximum tolerated dose in the preliminary experiment, a maximum of 20 mg/kg of compound (1) was giving IP for two days.

[2] = tested on: Methicillin-resistant Staphylococcus aureus; assay: In vivo MRSA assay, thigh infection in neutropenic mice; design: species or system Mice (CD-1); conditions: for number of MRSA cfu per gram of muscle tissue: sacrificed after 48 hours; for reduction compared to vehicle control: 48 hours
Experimental: The in vivo antimicrobial activity for the isolated glycosides is represented in FIGS. 2A and 2B. Mice (CD-1) were purchased from Harlan Inc. and acclimatized up to 5 days before use. Food and water were available ad libitum throughout the study. They were rendered neutropenic by two injections of cyclophosphamide (100 mg/kg) given intraperitoneally, one and four days before infection. A volume of 50 uL suspension of Methicillin-resistant Staphylococcus aureus (1.5×10^6 live organisms) was injected intramuscularly (1M) into each of the two rear thighs. Each thigh was considered as an individual data point (total of 4 data points for each treatment). These mice were randomly distributed into the control or treatment groups (n=2/group).
Treatment with the test compound (1) was initiated via the intraperitoneal route 2 hrs after thigh inoculation. Control animals were concurrently administered saline (mock treatment) or vancomycin in the same volume as those receiving compound (1). All animals were sacrificed after 48 hours by CO2 inhalation. Immediately following sacrifice, thigh tissue was collected from the animals, weighed, and homogenized in 5.0 mL of saline. Thigh muscle homogenate was then processed for microbiological assay to determine the number of MRSA cfu per gram of muscle tissue.

[3] = tested on: methicillin resistant Staphylococcus aureus (MRSA); assay: in vitro antimicrobial evaluation (modified CLSI method); type: cell-based; conditions: IC50 from percent growth versus test concentration
Experimental: The in vitro antimicrobial activity for the isolated glycosides is represented in FIG. 1. A modified version of CLSI (formerly NCCLS) method was used for the in vitro evaluation of test samples. Duplicate samples were transferred to 96-well microplates after diluting with 0.9% saline. The microbial cell suspensions were to give the desired target inocula after addition to the samples. Media and solvent controls were included in each assay. The IC50 was calculated by plotting percent growth versus test concentration.

MRSA = conditions: background statement; cited from earlier work
[4] = vancomycin control, dose not given

C[C@@H]1O[C@@H](Oc2c(-c3ccc(O)cc3)oc3cc(O)cc(O)c3c2=O)[C@H](OC(=O)/C=C/c2ccc(O)cc2)[C@H](OC(=O)/C=C/c2ccc(O)cc2)[C@H]1O [compound 1, kaempferol 3-O-α-L-(2″,3″-di-E-p-coumaroyl)rhamnoside]
acute toxicity / untoward effect [1]: No untoward effect | number of MRSA cfu per gram of muscle tissue ([2]; 3 mg/kg intraperitoneal, 2 hrs after inoculation): 2.6×10^7 cfu/g | reduction compared to vehicle control ([2]; 3 mg/kg intraperitoneal): 67% | number of MRSA cfu per gram of muscle tissue ([2]; 15 mg/kg intraperitoneal, 2 hrs after inoculation): 1.8×10^7 cfu/g | reduction compared to vehicle control ([2]; 15 mg/kg intraperitoneal): 78%

C[C@@H]1O[C@@H](Oc2c(-c3ccc(O)cc3)oc3cc(O)cc(O)c3c2=O)[C@H](OC(=O)/C=C\c2ccc(O)cc2)[C@H](OC(=O)/C=C\c2ccc(O)cc2)[C@H]1O [compound 4, kaempferol 3-O-α-L-(2″,3″-di-Z-p-coumaroyl)rhamnoside]
in vitro activity (rank among the four compounds) [3]: most potent

CN[C@H](CC(C)C)C(=O)N[C@H]1C(=O)N[C@@H](CC(N)=O)C(=O)N[C@H]2C(=O)N[C@H]3C(=O)N[C@H](C(=O)N[C@H](C(=O)O)c4cc(O)cc(O)c4-c4cc3ccc4O)[C@H](O)c3ccc(c(Cl)c3)Oc3cc2cc(c3O[C@@H]2O[C@H](CO)[C@@H](O)[C@H](O)[C@H]2O[C@H]2C[C@](C)(N)[C@H](O)[C@H](C)O2)Oc2ccc(cc2Cl)[C@H]1O [vancomycin, reference compound]
success rate (MRSA): 35-57% | reduction compared to vehicle control [2, 4]: 72% | number of MRSA cfu per gram of muscle tissue [2, 4]: 2.2×10^7 cfu/g
